Tests used:
[1] = system: Blood; assay: Inhibition of GROalpha-induced CD11b integrin expression on human neutrophils in human whole blood pretreated for 10 mins followed by GROalpha challenge measured after 10 mins by FITC/PE staining based flow cytometry; format: functional, tissue-based
[2] = molecular target: T1, C-X-C chemokine receptor type 2 (Homo sapiens, UniProt P25025); assay: Displacement of [125I]IL8 from recombinant human CXCR2 expressed in CHO cell membranes measured after 1 hr by TopCount scintillation counting method
T1 sequence (P25025 whole entry): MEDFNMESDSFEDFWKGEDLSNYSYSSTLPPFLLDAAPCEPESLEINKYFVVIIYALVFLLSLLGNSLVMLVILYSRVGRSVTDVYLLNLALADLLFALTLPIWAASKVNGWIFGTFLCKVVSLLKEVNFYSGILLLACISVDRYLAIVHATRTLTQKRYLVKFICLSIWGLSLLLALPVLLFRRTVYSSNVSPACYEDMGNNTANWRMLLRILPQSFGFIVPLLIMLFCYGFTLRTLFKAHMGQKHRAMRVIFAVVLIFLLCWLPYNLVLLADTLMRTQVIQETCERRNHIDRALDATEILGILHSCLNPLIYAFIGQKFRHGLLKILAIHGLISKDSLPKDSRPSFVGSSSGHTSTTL

[3] = molecular target: T1, C-X-C chemokine receptor type 2; assay: Antagonist activity at CXCR2 (unknown origin) expressed in CHO-K1 cells co-expressing Galpha-16 assessed as inhibition of IL8-induced calcium mobilization measured after 10 mins by Fluo-4AM dye based FLIPR assay; format: functional, cell-based

Question: Which IC50 [1] does the source give for `Cc1c(F)cccc1NC(=O)Nc1ccc(Cl)c(S(=O)(=O)[C@H]2CCCNC2)c1O` [DANIRIXIN] here?
Answer: Its IC50 is 500 to 2000 nM.

Question: With `O=C(Nc1cccnc1Cl)Nc1ccc(Cl)c(S(=O)(=O)[C@H]2CCCNC2)c1O` as the compound, how does the IC50 [2] read?
Answer: Its IC50 is < 30000 nM.

Question: What about the IC50 [1] of the same compound?
Answer: Its IC50 is 500 to 2000 nM.

Question: For `O=C(Nc1ccc(Cl)c(S(=O)(=O)C2CCNCC2)c1O)Nc1cccc2c1OC(F)(F)O2`, which IC50 [2] is on record?
Answer: The IC50 was < 30000 nM.

Question: And the IC50 [3]?
Answer: The IC50 was 5 to 600 nM.

Question: For `O=C(Nc1ccc(Cl)c(S(=O)(=O)C2CCNCC2)c1O)Nc1cccc(F)c1Cl`, which IC50 [2] is on record?
Answer: Its IC50 is < 30000 nM.

Question: What about the IC50 [1] of the same compound?
Answer: The IC50 was 500 to 2000 nM.

Question: What about the IC50 [3] of the same compound?
Answer: Its IC50 is 5 to 600 nM.

Question: What does the source list for `O=C(Nc1cccnc1Cl)Nc1ccc(Cl)c(S(=O)(=O)C2CCCNC2)c1O` (configuration not stated)?
Answer: IC50 [1]: 500 to 2000 nM; IC50 [3]: 5 to 600 nM

Question: `O=C(Nc1cccnc1Cl)Nc1ccc(Cl)c(S(=O)(=O)C2C[C@H]3CC[C@@H](C2)N3)c1O` (some centres not stated) was tested. Which IC50 [3] did it give?
Answer: The IC50 was 5 to 600 nM.

Question: How did the IC50 [2] turn out when `CCOC(=O)N1CCC(S(=O)(=O)c2c(Cl)ccc(NC(=O)Nc3ccccc3Oc3ccccc3)c2O)CC1` was run?
Answer: The IC50 was < 30000 nM.

Question: What about the IC50 [3] of the same compound?
Answer: Its IC50 is 5 to 600 nM.

Question: For `CCc1ccccc1NC(=O)Nc1ccc(Cl)c(S(=O)(=O)C2CCCNC2)c1O` (configuration not stated), which IC50 [3] is on record?
Answer: Its IC50 is 5 to 600 nM.

Question: How did the IC50 [2] turn out when `O=C(Nc1ccc(Cl)c(S(=O)(=O)[C@@H]2CCNC2)c1O)Nc1cccc(F)c1Cl` was run?
Answer: The IC50 was < 30000 nM.

Question: And the IC50 [3]?
Answer: The IC50 was 5 to 600 nM.

Question: `O=C(Nc1ccc(Cl)c(S(=O)(=O)C2CCCNC2)c1O)Nc1cccc(Cl)c1Cl` (configuration not stated) was tested. Which IC50 [2] did it give?
Answer: Its IC50 is < 30000 nM.

Question: And the IC50 [3]?
Answer: The IC50 was 5 to 600 nM.

Question: With `O=C(Nc1ccc(Cl)c(S(=O)(=O)C2CNC2)c1O)Nc1cccc(F)c1Cl` as the compound, how does the IC50 [3] read?
Answer: The IC50 was 5 to 600 nM.

Question: With `O=C(Nc1cccnc1Cl)Nc1ccc(Cl)c(S(=O)(=O)[C@H]2CCNC2)c1O` as the compound, how does the IC50 [1] read?
Answer: Its IC50 is 500 to 2000 nM.

Question: What about the IC50 [3] of the same compound?
Answer: The IC50 was 5 to 600 nM.

Question: What does the source list for `O=C(Nc1ccccc1Oc1ccccc1)Nc1ccc(Cl)c(S(=O)(=O)[C@H]2CCNC2)c1O`?
Answer: IC50 [1]: 500 to 2000 nM; IC50 [3]: 5 to 600 nM

Question: `Cc1c(F)cccc1NC(=O)Nc1ccc(Cl)c(S(=O)(=O)C2C[C@H]3CC[C@@H](C2)N3)c1O` (some centres not stated) was tested. Which IC50 [3] did it give?
Answer: Its IC50 is 5 to 600 nM.

Question: With `O=C(Nc1cccnc1Cl)Nc1ccc(Cl)c(S(=O)(=O)C2CCNCC2)c1O` as the compound, how does the IC50 [3] read?
Answer: Its IC50 is 5 to 600 nM.

Question: Which results are given for `Cc1c(F)cccc1NC(=O)Nc1ccc(Cl)c(S(=O)(=O)C2CNC2)c1O`?
Answer: IC50 [2]: < 30000 nM; IC50 [3]: 5 to 600 nM

Question: `O=C(Nc1ccccc1OC(F)(F)F)Nc1ccc(Cl)c(S(=O)(=O)[C@@H]2CCNC2)c1O` was tested. Which IC50 [3] did it give?
Answer: The IC50 was 5 to 600 nM.

Question: Which results are given for `Cc1c(F)cccc1NC(=O)Nc1ccc(Cl)c(S(=O)(=O)CC2CCNC2)c1O` (configuration not stated)?
Answer: IC50 [2]: < 30000 nM; IC50 [3]: 5 to 600 nM

Question: Which IC50 [1] does the source give for `O=C(Nc1ccc(Cl)c(S(=O)(=O)[C@H]2CCCNC2)c1O)Nc1cccc(F)c1Cl` here?
Answer: The IC50 was 500 to 2000 nM.

Question: And the IC50 [3]?
Answer: Its IC50 is 5 to 600 nM.

Question: For `CCOC(=O)N1CCC(S(=O)(=O)c2c(Cl)ccc(NC(=O)Nc3cccc(F)c3Cl)c2O)CC1`, which IC50 [3] is on record?
Answer: The IC50 was 5 to 600 nM.

Question: `Cc1c(F)cccc1NC(=O)Nc1ccc(Cl)c(S(=O)(=O)C2CCNCC2)c1O` was tested. Which IC50 [2] did it give?
Answer: The IC50 was < 30000 nM.

Question: What about the IC50 [1] of the same compound?
Answer: The IC50 was 500 to 2000 nM.

Question: What about the IC50 [3] of the same compound?
Answer: Its IC50 is 5 to 600 nM.

Question: How did the IC50 [2] turn out when `O=C(Nc1cccnc1Cl)Nc1ccc(Cl)c(S(=O)(=O)C2CNC2)c1O` was run?
Answer: Its IC50 is < 30000 nM.

Question: And the IC50 [3]?
Answer: Its IC50 is 5 to 600 nM.

Question: Which IC50 [2] does the source give for `O=C(Nc1ccccc1OC(F)(F)F)Nc1ccc(Cl)c(S(=O)(=O)CC2CCNC2)c1O` (configuration not stated) here?
Answer: The IC50 was < 30000 nM.

Question: And the IC50 [3]?
Answer: Its IC50 is 5 to 600 nM.

Question: With `O=C(Nc1ccc(Cl)c(S(=O)(=O)C2C[C@H]3CC[C@@H](C2)N3)c1O)Nc1cccc(F)c1Cl` (some centres not stated) as the compound, how does the IC50 [3] read?
Answer: The IC50 was 5 to 600 nM.

Question: With `O=C(Nc1ccccc1OC(F)(F)F)Nc1ccc(Cl)c(S(=O)(=O)C2CCCNC2)c1O` (configuration not stated) as the compound, how does the IC50 [3] read?
Answer: Its IC50 is 5 to 600 nM.

Question: How did the IC50 [3] turn out when `O=C(Nc1ccc(Cl)c(S(=O)(=O)[C@H]2CCNC2)c1O)Nc1cccc(F)c1Cl` was run?
Answer: The IC50 was 5 to 600 nM.

Question: How did the IC50 [2] turn out when `O=C(Nc1ccccc1Oc1ccccc1)Nc1ccc(Cl)c(S(=O)(=O)C2C[C@H]3CC[C@@H](C2)N3)c1O` (some centres not stated) was run?
Answer: Its IC50 is < 30000 nM.

Question: What about the IC50 [3] of the same compound?
Answer: The IC50 was 5 to 600 nM.

Question: How did the IC50 [3] turn out when `Cc1c(F)cccc1NC(=O)Nc1ccc(Cl)c(S(=O)(=O)[C@H]2CCNC2)c1O` was run?
Answer: The IC50 was 5 to 600 nM.

Question: Which IC50 [2] does the source give for `Cc1c(F)cccc1NC(=O)Nc1ccc(Cl)c(S(=O)(=O)[C@@H]2C[C@H]3CC[C@@H](C2)N3C)c1O` here?
Answer: The IC50 was < 30000 nM.

Question: What about the IC50 [3] of the same compound?
Answer: The IC50 was 5 to 600 nM.

Question: For `O=C(Nc1ccc(Cl)c(S(=O)(=O)[C@@H]2CCNC2)c1O)Nc1cccc2c1OC(F)(F)O2`, which IC50 [3] is on record?
Answer: The IC50 was 5 to 600 nM.

Question: `O=C(Nc1ccccc1OC(F)(F)F)Nc1ccc(Cl)c(S(=O)(=O)C2CCNCC2)c1O` was tested. Which IC50 [3] did it give?
Answer: The IC50 was 5 to 600 nM.

Question: Which IC50 [3] does the source give for `O=C(Nc1ccc(Cl)c(S(=O)(=O)CC2CCNC2)c1O)Nc1cccc(F)c1Cl` (configuration not stated) here?
Answer: The IC50 was 5 to 600 nM.

Question: `CCc1ccccc1NC(=O)Nc1ccc(Cl)c(S(=O)(=O)C2CCNCC2)c1O` was tested. Which IC50 [2] did it give?
Answer: The IC50 was < 30000 nM.

Question: And the IC50 [3]?
Answer: The IC50 was 5 to 600 nM.

Question: For `CCc1ccccc1NC(=O)Nc1ccc(Cl)c(S(=O)(=O)[C@@H]2CCNC2)c1O`, which IC50 [2] is on record?
Answer: Its IC50 is < 30000 nM.

Question: And the IC50 [3]?
Answer: The IC50 was 5 to 600 nM.

Question: For `CCOC(=O)N1CCC(S(=O)(=O)c2c(Cl)ccc(NC(=O)Nc3cccc(F)c3C)c2O)CC1`, which IC50 [3] is on record?
Answer: The IC50 was 5 to 600 nM.

Question: With `O=C(Nc1ccccc1Oc1ccccc1)Nc1ccc(Cl)c(S(=O)(=O)C2CCNCC2)c1O` as the compound, how does the IC50 [3] read?
Answer: The IC50 was 5 to 600 nM.

— ChEMBL document CHEMBL3882244, “IL-8 Receptor Antagonists” (2007)
